Assay [1] relates to aCD3/aCD28-stimulated human CD4+-T-cells. The assay can be described thus: IL-2 production and activation markers in aCD3/aCD28 stimulated isolated human CD4+-T-cells. It is filed as cell-based. As to conditions: IL-2 production at 3 μM compound. In a few lines:
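CD4+ T cells isolated from buffy-coat PBMCs by microbeads were plated in Xvivo medium (1.5*10^5 cells/well) and stimulated with anti-CD3/28 mAbs plus compound. IL-2 measured by ELISA in supernatants at 24 h or 48 h; CD25 and proliferation by flow cytometry, CD69 at 24 h. Activity classes based on IL-2 at 3 μM compound.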

Another assay concerns non-stimulated PBMCs. The assay can be described thus: Non-stimulated PBMCs: cytokine secretion and signs of T-cell activation. The format is cell-based, human. From the text:
This is an important finding for compounds that shall selectively act on T cells which have been activated by presence of antigen from pathogens or tumors, but shall not lead to an unwanted general activation of all T cells of a patient.

Assay [2] deals with aCD3/aCD28-stimulated human PBMCs. The assay can be described thus: Cytokine production in aCD3/aCD28 stimulated human PBMCs. The format is cell-based. As to conditions: PBMC, 18 h. In a few lines:
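Ficoll-isolated human PBMCs at 1e6 cells/mL in X-Vivo15, stimulated with soluble anti-CD3/CD28 (OKT3 and 28.2, 1 μg/mL each) plus compound for 18 h at 37° C. Supernatant cytokines quantified by MSD or HTRF.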

Setting [3] is: enhancement of IFN-γ production, read-out: Activity Class IFN-γ.
Where [4] appears, read: enhancement of IL-2 production, read-out: Activity Class IL-2.

Where a name gives a salt, the structure may show the parent alone. Read-outs that look alike come from different tables or passages of the source. Where only a bound is given, the exact number is not on record here.

For the compound `N[C@H]1CS(=O)(=O)c2cc(F)c(C(=O)NC3CC3(F)F)cc2N(Cc2ccc(Cl)cc2)C1=O` (stereo partly drawn) [Example 1, (3R)-3-amino-5-[(4-chlorophenyl)methyl]-N-(2,2-difluorocyclopropyl)-8-fluoro-1,1,4-trioxo-2,3,4,5-tetrahydro-1λ^6,5-benzothiazepine-7-carboxamide hydrochloride], the “Activity Class CD4+” value in assay [1] is on record as “A (IL-2 production at 3 μM compound concentration >10 ng/mL)”. Further, in the assay on non-stimulated PBMCs, the “cytokine secretion or other signs of T-cell activation” value (“cytokine secretion or other signs” for short) is recorded as “did not enhance cytokine secretion or other signs of T-cell activation”. The EC50 in assay [2] (setting [3]) and in assay [2] (setting [4]) was < 1580 nM throughout.

In the case of `CCCCNC(=O)c1ccc2c(c1)N(Cc1ccc(OC(F)(F)F)cc1)C(=O)[C@@H](N)CS2(=O)=O.Cl` [Example 67, (3R)-3-amino-N-butyl-1,1,4-trioxo-5-{[4-(trifluoromethoxy)phenyl]methyl}-2,3,4,5-tetrahydro-1λ^6,5-benzothiazepine-7-carboxamide hydrochloride], in assay [1], the “Activity Class CD4+” value is on record as “A (IL-2 production at 3 μM compound concentration >10 ng/mL)”. Further, in the assay on non-stimulated PBMCs, the “cytokine secretion or other signs” value was “did not enhance cytokine secretion or other signs of T-cell activation”. Besides, the EC50 in assay [2] (setting [3]) and in assay [2] (setting [4]) was < 1580 nM each time.

As for `Cl.N[C@H]1CS(=O)(=O)c2cc(F)c(C(=O)NCCCC(F)(F)F)cc2N(Cc2ccc(Cl)cc2)C1=O` [Example 70, (3R)-3-amino-5-[(4-chlorophenyl)methyl]-8-fluoro-1,1,4-trioxo-N-(4,4,4-trifluoro-butyl)-2,3,4,5-tetrahydro-1λ^6,5-benzothiazepine-7-carboxamide hydrochloride], the “Activity Class CD4+” value in assay [1] was “A (IL-2 production at 3 μM compound concentration >10 ng/mL)”. The EC50 in assay [2] (setting [3]) and in assay [2] (setting [4]) was < 1580 nM throughout.

Consider `CC(C)NC(=O)c1cc2c(cc1F)S(=O)(=O)C[C@H](N)C(=O)N2Cc1ccc(Cl)cc1.Cl` [Example 77, (3R)-3-amino-5-[(4-chlorophenyl)methyl]-8-fluoro-1,1,4-trioxo-N-(propan-2-yl)-2,3,4,5-tetrahydro-1λ^6,5-benzothiazepine-7-carboxamide hydrochloride], for which the “Activity Class CD4+” value in assay [1] is “C (IL-2 production at 3 μM compound concentration between 2-fold increase as compared to mean IL-2 production of stimulated cells in the absence of compounds and <2 ng/mL)”. In addition, in the assay with non-stimulated PBMCs, the “cytokine secretion or other signs” value is reported as “did not enhance cytokine secretion or other signs of T-cell activation”. Further, the EC50 in assay [2] (setting [3]) and in assay [2] (setting [4]) was 1580 to 5010 nM in each case.

The record behind these values is US10472341B2, “Bicyclic tetrahydrothiazepine derivatives useful for the treatment of neoplastic and/or infectious diseases” (APEIRON BIOLOGICS AG, priority 2015, dated 2019).
